Legend:
NF-κB = assay: Activation of NF-κB induced by LPS in human PBMC (EMSA); assay type: cell-based; settings: human PBMCs, HTB 1-3 mM, 1 hour, then LPS 10 μg/ml 10 minutes
Protocol: Mononuclear cells (PBMC) were obtained from blood of healthy donors from the Hospital de Sant Pau (Barcelona) who had not taken any antiinflammatory drug during a period of not less than 2 weeks before blood extraction. Starting from a volume of about 80 ml of heparinized human blood (10 U/ml), this was diluted (1:1) with PBS (pH 7.4; Dulbecco) without calcium, magnesium nor sodium bicarbonate.
15 ml of Ficoll solution (d=1.077 at 20° C.; Biochrom KG) were placed in 50-ml Falcon tubes. To this solution a volume of about 25 ml per tube of the blood previously diluted with PBS was carefully added and the tubes were then centrifuged at 1,200 g for 20 minutes. Mononuclear cells concentrate on a whitish interphase between the plasma and the Ficoll solution. This interphase was collected with a Pasteur pipette and was diluted 1:1 with PBS. It was then centrifuged at 300 g for 10 min. The resulting pellet was resuspended in 50 ml PBS and was again centrifuged at 200 g for 10 min, in order to remove platelet contamination. […]
Prior to the various treatments, cell viability was determined by the Trypan Blue exclusion assay. […]
After incubation, PBMCs were washed twice with PBS and the degree of activation (binding to DNA) of the transcription factor NF-κB was determined using the EMSA assay, described in detail in Example 1.

iNOS = iNOS expression measured as nitrite production induced by immune complexes in rat peritoneal macrophages; assay type: cell-based; settings: Peritoneal macrophage, 100 μg/ml IgG/ovalbumin, nitrite after 24 hours, mean ± SEM, read-out: IC50, production of nitrite (NO) induced by immune complexes
Protocol: Rat peritoneal cells were obtained and resuspended in DMEM culture medium in the absence of serum and supplemented with antibiotics. Macrophages were isolated by their ability to adhere to culture plates following incubation for 2 hours at 37° C. Non-adherent cells were removed and it was then checked that more than 95% of the adherent cells were macrophages, as assessed by their ability to engulf zymosan particles and nonspecific esterase staining. Culture plates were kept at 37° C. under a 5% CO2 atmosphere, and the peritoneal macrophages adhered to the plates were incubated with 100 μg/ml IgG/ovalbumin immune complexes in the presence or absence (Control) of triflusal or HTB (0.1-20 mM, both). Drugs were added 10 minutes before the addition of IgG/ovalbumin and the production of NO was determined as the nitrite present after 24 hours.
iNOS expression was indirectly measured as the production of NO. NO released from macrophage cultures was determined indirectly by the accumulation of nitrites. […] 50 μl naphthylenediamine (1 mM final concentration) were added and after 15 minutes of incubation the absorbance of the sample was measured at 548 nm and was compared with a NaNO2 standard. The production of NO was expressed as nmol NO2^−/mg protein.

[1] = Cell viability of COLO 205 cells (EZ4U); assay type: cell-based; settings: human, COLO 205 cells (colon adenocarcinoma), read-out: Percentage of cell viability
Protocol: Several cell lines obtained from the American Type Culture Collection (ATCC) were cultured at 37° C. and under a 5% CO2 atmosphere. Each cell line was grown in an appropriate culture medium and within the exponential phase (Table I).
For the cell viability studies 24-well plates were used, where 0.5×10^6 cells/ml (for 24-hour studies), 0.25×10^6 cells/ml (for 48-hour studies) or 0.125×10^6 cells/ml (for 72-hour studies) were incubated. Next, different concentrations of HTB (1-3 mM) were added and cells were incubated for different time periods (37° C., 5% CO2). After incubation, the supernatant from each well was extracted, and cells were washed with culture medium without fetal calf serum. Then, the supernatant was extracted and 200 μl culture medium without fetal calf serum were added to each well. In addition, 20 μl substrate were added to determine cell viability. This method is based on the ability of viable cells to transform the colourless substrate into a coloured substance that is excreted to the supernatant (EZ4U, Biomedica Gmbh.). After incubating cells for 1 hour at 37° C. and 5% CO2, 200 μl supernatant were collected and the absorbance was measured at 450 nm.
The absorbance was also determined at 620 nm as a measure of the existing non-specific value.

[2] = Adjuvant-induced arthritis in the rat; assay type: in vivo; settings: 10 mg/kg p.o. daily for 28 days, day 28
Protocol: Adjuvant-induced arthritis is characterized by the development, from day 14 after adjuvant injection, of a chronic inflammation of immunological origin in several joints, with accumulation of inflammatory cells and release of cytokines. For this study, male Lewis rats with body weight between 100 and 150 g were used. Before the start of the study animals were acclimated for a period of at least 5 days. Animals were fasted for 18 hours before the study, with water ad libitum. Throughout the study, animals were allowed free access to drinking water, except during observation periods. Groups of five animals were randomized (Sham, Control and Triflusal). The duration of the study was 28 days. Arthritis was induced on day 1 of the study by subplantar administration of 0.1 ml of an emulsion formed with 10 mg M. butyricum and 10 ml Freund's incomplete adjuvant (Difco) to the right hindpaw of the animals from the Control and Triflusal groups. Sham animals received 0.1 ml Freund's incomplete adjuvant. […] On day 28 of the development of arthritis, the volume of the contralateral paw to that receiving the adjuvant injection was determined using a UGO BASILE 7150 plethysmometer. The inhibition of the increase in volume was calculated as follows: % Inh.=100−((T-S)/(C-S))*100 Where: T=Triflusal group; C=Control group; and S=Sham group

IC50 (iNOS) [µM] | SMILES | inhibition of the activation of NF-κB induced by LPS (NF-κB) | viability at 0 h, 1 mM ([1]; 1 mM HTB, 0 hours) [%] | viability at 2 h, 1 mM ([1]; 1 mM HTB, 2 hours) [%] | viability at 5 h, 1 mM ([1]; 1 mM HTB, 5 hours) [%] | viability at 24 h, 1 mM ([1]; 1 mM HTB, 24 hours) [%] | viability at 48 h, 1 mM ([1]; 1 mM HTB, 48 hours) [%] | viability at 72 h, 1 mM ([1]; 1 mM HTB, 72 hours) [%] | viability at 0 h, 3 mM ([1]; 3 mM HTB, 0 hours) [%] | viability at 2 h, 3 mM ([1]; 3 mM HTB, 2 hours) [%] | viability at 5 h, 3 mM ([1]; 3 mM HTB, 5 hours) [%] | viability at 24 h, 3 mM ([1]; 3 mM HTB, 24 hours) [%] | viability at 48 h, 3 mM ([1]; 3 mM HTB, 48 hours) [%] | inhibition of the increase in volume of the contralateral paw [2] [%]
1840 ± 340 | O=C(O)c1ccc(C(F)(F)F)cc1O [HTB, 2-hydroxy-4-trifluoromethylbenzoic acid] | markedly inhibits | 100 | 100 | 87.2 | 64.8 | 37.4 | 7.6 | 100 | 94.5 | 69.2 | 39.6 | 14.3 | –
1130 ± 120 | CC(=O)Oc1cc(C(F)(F)F)ccc1C(=O)O [triflusal, 2-Acetyloxy-4-trifluoromethylbenzoic acid, reference compound] | – | – | – | – | – | – | – | – | – | – | – | – | 63.1±8.0

Source: patent US6509377B1, “Use of a 2-hydroxy-4-trifluoromethylbenzoic acid derivatives as inhibitors of the activation of the nuclear transcription factor NF-κB” (J. Uriach & Cia, S.A., priority 1999, dated 2003)
